Results on 34 compounds are retold here after ChEMBL document CHEMBL1139796, “Novel anti-tuberculosis agents from MCR libraries” (Bioorg Med Chem Lett, 2007).

The assay relates to Mycobacterium tuberculosis. Nature of the assay: Antimycobacterial activity against Mycobacterium tuberculosis at 12.5 ug/ml. Type of assay: functional. Conditions: read-out: GI.
For `C=CCNC(=O)C(C=C)(CC)N(C(=O)c1cccnc1)C(C)c1ccccc1` (centres undefined), the inhibition of growth at 12.5 µg/mL came to 73%.
As for `C=CCNC(=O)C1(N(CCCn2ccnc2)C(=O)c2cccnc2)CCCc2cc(OC)ccc21` (centres undefined), the figure is 69%.
Turning to `C=CCNC(=O)C1(N(C(=O)c2cccnc2)C2CCCCC2)CCCc2cc(OC)ccc21` (centres undefined), the inhibition of growth at 12.5 µg/mL came to 72%.
Then `C=CCNC(=O)C(C)(C)N(C(=O)c1cccnc1)C(C)c1ccccc1` (centres undefined), with 83%.
As for `C=CCNC(=O)C(C)(C)N(C(=O)c1cccnc1)C1CC1`, the figure is 64%; as for `C=CCNC(=O)C(C=C)(CC)N(Cc1ccncc1)C(=O)c1cccnc1` (centres undefined), 23%.
As for `C=CCNC(=O)C(C)(C(C)C)N(Cc1ccncc1)C(=O)c1cccnc1` (centres undefined), the figure is 52%; as for `C=CCNC(=O)C(C)(C(C)C)N(CC=C)C(=O)c1cccnc1` (centres undefined), 69%.
`C=CCNC(=O)C(C)(C(C)C)N(C(=O)c1cccnc1)C(C)c1ccccc1` (centres undefined): the inhibition of growth at 12.5 µg/mL came to 83%.
Take `C=CCNC(=O)C(C)(C)N(CC=C)C(=O)c1cccnc1`: the inhibition of growth at 12.5 µg/mL worked out at 76%.
As for `C=CCNC(=O)C(C)(C(C)C)N(CCCN1CCOCC1)C(=O)c1cccnc1` (centres undefined), the figure is 64%; as for `C=CCNC(=O)C(C)(C)N(Cc1ccncc1)C(=O)c1cccnc1`, 51%; as for `C=CCNC(=O)C(C)(C)N(CC(C)(C)C)C(=O)c1cccnc1`, 71%.
Then `C=CCNC(=O)C(C=C)(CC)N(CCCN1CCOCC1)C(=O)c1cccnc1` (centres undefined), with 31%.
As for `C=CCNC(=O)C(C=C)(CC)N(C(=O)c1cccnc1)C1CCCCC1` (centres undefined), the figure is 84%; as for `C=CCNC(=O)C1(N(CC(C)(C)C)C(=O)c2cccnc2)CCCc2cc(OC)ccc21` (centres undefined), 72%; as for `C=CCNC(=O)C1(N(CCCN2CCOCC2)C(=O)c2cccnc2)CCCc2cc(OC)ccc21` (centres undefined), 64%.
For the compound `C=CCNC(=O)C(C)(C)N(C(=O)c1cccnc1)C1CCCCC1`, the inhibition of growth at 12.5 µg/mL was 92%.
For `C=CCNC(=O)C(C)(C)N(CCCN1CCOCC1)C(=O)c1cccnc1`, the inhibition of growth at 12.5 µg/mL came to 70%.
As for `C=CCNC(=O)C(C=C)(CC)N(CCCn1ccnc1)C(=O)c1cccnc1` (centres undefined), the figure is 23%.
Then `C=CCNC(=O)C(C)(C(C)C)N(CC(C)(C)C)C(=O)c1cccnc1` (centres undefined), with 62%.
Consider `C=CCNC(=O)C(C)(C(C)C)N(C(=O)c1cccnc1)C1CC1` (centres undefined), for which the inhibition of growth at 12.5 µg/mL amounted to 67%.
Then `C=CCNC(=O)C1(N(C(=O)c2cccnc2)C2CC2)CCN(Cc2ccccc2)CC1`, with 43%; and `C=CCNC(=O)C(C)(C(C)C)N(C(=O)c1cccnc1)C1CCCCC1` (centres undefined), with 95%.
Then `C=CCNC(=O)C1(N(CC=C)C(=O)c2cccnc2)CCCc2cc(OC)ccc21` (centres undefined), with 80%.
For the compound `C=CCNC(=O)C(C=C)(CC)N(CC=C)C(=O)c1cccnc1` (centres undefined), the inhibition of growth at 12.5 µg/mL is 39%.
Then `C=CCNC(=O)C1(N(C(=O)c2cccnc2)C2CC2)CCCc2cc(OC)ccc21` (centres undefined), with 69%; and `C=CCNC(=O)C1(N(Cc2ccncc2)C(=O)c2cccnc2)CCCc2cc(OC)ccc21` (centres undefined), with 63%; and `C=CCNC(=O)C(C=C)(CC)N(CC(C)(C)C)C(=O)c1cccnc1` (centres undefined), with 60%.
Then `C=CCNC(=O)C1(N(C(=O)c2cccnc2)C(C)c2ccccc2)CCCc2cc(OC)ccc21` (centres undefined), with 82%.
As for `C=CCNC(=O)C(C=C)(CC)N(C(=O)c1cccnc1)C1CC1` (centres undefined), the figure is 50%; as for `C=CCNC(=O)C(CCCC)N(Cc1ccncc1)C(=O)c1cccnc1` (centres undefined), 96%.
With `C=CCNC(=O)C(C)(C(C)C)N(CCCn1ccnc1)C(=O)c1cccnc1` (centres undefined), the inhibition of growth at 12.5 µg/mL came to 54%.
Then `C=CCNC(=O)C(C)(C)N(CCCn1ccnc1)C(=O)c1cccnc1`, with 57%.
